Measured values as given in patent US20210235699A1, “Adjuvant Compositions Comprising a Tetramethylguanidine and a 4-Isothiazolin-3-One” (Lonza, LLC, priority 2018, published 2021).

Columns and labels:
[1] = test system: combined bacterial test inoculum: Acinetobacter calcoaceticus, Escherichia coli, Pseudomonas aeruginosa, Enterobacter cloacae; assay: Bacterial challenge test (ASTM D2574-97, modified) in standard water based interior paint; type: cell-based; conditions: 50 ppm
Procedure: (§1) The following bacterial and fungal challenge tests were performed to ascertain whether low concentrations of 4-isothiazolin-3-one biocidal active compounds, pyrithione, coumarin or guanidine adjuvant are sufficient to prevent microbial contamination of final products when deliberately inoculated with spoilage microbes.
(§2) The tests were performed according to ASTM standard D2574-97 (Standard Test Method for Resistance of Emulsion Paints in the Container to Attack by Microorganisms, ASTM International, West Conshohocken, Pa.), with higher inoculation volumes and frequency. A standard water based interior paint was used as the test substrate. Sample sizes of 20 g test substrate were used and the test samples were prepared in a sterile 30 mL square Nalgene bottle.
The bacteria were grown on pH 5, 7, or 9 Trypticase Soy Agar (TSA) lawns. The bacteria were grown individually on TSA and harvested by using sterile buffered water. The bacterial lawns were washed off with 30 mL of sterile water and an equal volume of each individual cell suspension was withdrawn from each serum bottle to make a combined cell suspension. Combined bacterial suspension were about 10^7 cfu/mL, which provides about 10^6 cfu/mL in the sample.
(§3) The following microorganisms were used for inoculation of the tested samples:
(§4) For the bacterial challenge testing, each sample was inoculated with a combined bacterial test inoculum volume equivalent to 10% of the total initial sample volume for the initial inoculation, 5% of the total initial sample volume for the second inoculation and 2.5% of the total initial sample volume for the third inoculation. Inoculum volumes for the fungal challenge tests were 2%, 1% and 0.5% of the total initial sample volume, respectively. Samples were inoculated every 96 h.
(§5) Concentrations of biocidal active compounds and adjuvants refer to the final concentration in the test samples prior to the first inoculation.
(§6) The efficacy of the added agent in each sample was monitored by means of a streak plate test after 24 hours (all inoculations) and 72 hours of inoculation (first and second inoculation). At 72 hours of the third inoculation performed, a dilution plate count was performed in order to obtain a quantitative measurement of contamination (cfu/mL). A count of less than 10 colony forming units per mL ([…]) is considered to show no measurable contamination. For the streak plate tests, bacterial samples were streaked on Tryptic Soy Agar (TSA) and incubated for 48 hours at 30° C. before reading. Fungal samples were streaked on Potato Dextrose Agar (PDA) and incubated for 5 days at 25° C. before reading.
(§7) The streak plates were ranked from 0-5c according to the degree of microbial growth:
(§8) The challenge tests were performed as described above.

[2] = test system: bacteria, fungi and yeast; conditions: cited from earlier work
[3] = test system: fungal test inoculum: Aspergillus niger, Penicillium funiculosum, Candida albicans; assay: Fungal challenge test (ASTM D2574-97, modified) in standard water based interior paint; type: cell-based; conditions: 50 ppm
Procedure: as §1, §2
Fungal lawns were grown on Potato Dextrose Agar (PDA) or Sabouraud Dextrose Agar (SAB). Individual fungal spore suspensions were harvested by adding 10 mL of sterile 0.05% Triton X to fungal lawns. The lawns were then gently agitated by rubbing a sterile swab on the lawn, being careful not to puncture the agar. The liquid was then aseptically transferred to a sterile bottle containing sterile glass beads. The top of the bottle was closed and the bottle shaken vigorously to break up any chunks in the suspension. The shaken spore suspension was decanted through sterile fibers into another sterile bottle. The decanted spore suspension was counted using a hemocytometer. Once the spore counts were determined, each suspension was diluted in order to obtain 10^6 spore/mL. Each diluted fungal suspension was poured into a sterile container.
as §3
as §4, with “Inoculum volumes for the fungal challenge tests were 2%, 1% and 0.5% of the total initial sample volume, respectively.” left out
as §5, §6, §7, §8

[4] = test system: bacterial test inoculum (Acinetobacter calcoaceticus, Escherichia coli, Pseudomonas aeruginosa, Enterobacter cloacae); assay: Quick kill testing in pre-contaminated standard interior paint (dilution-plate counts); type: cell-based; conditions: Table 9, 50 ppm, 30° C.
Procedure: An additional test was performed to analyze how quickly the tested biocidal compositions will recover a sample from microbial spoilage. For each sample, 20 g of a pre-contaminated standard interior paint formulation serving as a test substrate was weighed into a sterile container. All samples were contaminated with the bacterial test inoculum described above (10% of the of the total initial sample volume).
A dilution-plate count was performed on the untreated sample (0 hour time point) and a biocidal composition added aseptically to each sample. Subsequent to this treatment, further dilution-plate counts were performed at fixed time intervals (time points are given in hours) on each sample, including an untreated negative control. All samples were incubated at 30° C.±2° C.
Concentrations in ppm refer to final concentrations of the biocidal compositions in the test samples. The relative amounts of active compounds and adjuvant in the tested biocidal compositions were as indicated below: […]

[5] = neutral pH; cited from earlier work

Molecule	Dilution plate count, 3rd inoculation 72 h ([1]; inoculum 2.50%)	Streak plate rank, 3rd inoculation 24 h ([1]; inoculum 2.50%)	Streak plate rank, 2nd inoculation 72 h ([1]; inoculum 5%)	Streak plate rank, 1st inoculation 24 h ([1]; inoculum 10%)	Streak plate rank, 1st inoculation 72 h ([1]; inoculum 10%)	amounts required for a reliable and quick biocidal activity [2]	Dilution plate count, 3rd inoculation 72 h ([3]; inoculum 0.50%)	Streak plate rank, 3rd inoculation 24 h ([3]; inoculum 0.50%)	Streak plate rank, 2nd inoculation 72 h ([3]; inoculum 1%)	Streak plate rank, 1st inoculation 24 h ([3]; inoculum 2%)	Streak plate rank, 1st inoculation 72 h ([3]; inoculum 2%)	Dilution-plate count T4 ([4]; 4 hours after treatment)	Dilution-plate count T8 ([4]; 8 hours after treatment)	Dilution-plate count T24 ([4]; 24 hours after treatment)	solubility in water [5]
O=c1[nH]sc2ccccc12 [BIT, 1,2-benzisothiazolin-3-one]	4.2 × 10^7 cfu/mL	5 (5 = greater than 45 cfu)	5 (5 = greater than 45 cfu)	5 (5 = greater than 45 cfu)	4 (4 = 31-45 cfu)	up to 500 ppm	2.0 × 10^2 cfu/mL	5 (5 = greater than 45 cfu)	1 (1 = 1-5 Colony Forming Unit (cfu))	5 (5 = greater than 45 cfu)	2 (2 = 6-15 cfu)	1.15 × 10^7	3.4 × 10^6	9.4 × 10^5	
Zinc pyrithione															8 ppm
